Legend:
Format in all cases: physicochemical
[1] = Evaluation of absorption spectrum (maximal absorption wavelength in chloroform solution); conditions: for Near infrared absorbing property: grade of λmax in chloroform solution; for λmax (maximal absorption wavelength): chloroform solution, 3.0×10^−5 mol/L, 1 mm quartz cell
Protocol: The specific compound is diluted with chloroform to a concentration of […], and an absorbance of the obtained sample solution is measured with a spectrophotometer (UV-3600 Plus, manufactured by Shimadzu Corporation) using a 1 mm quartz cell. A maximal absorption wavelength (Amax) is measured from an absorption spectrum of the sample solution.
For each of Exemplary Compounds shown in Tables 1 and 2, a sample solution was prepared by diluting the compound with chloroform to a concentration of 3.0×10^−5 mol/L, and near infrared absorbability was evaluated.
For each sample solution, an absorbance was measured in a 1 mm quartz cell using a spectrophotometer (UV-3600 Plus, manufactured by Shimadzu Corporation).
A maximal absorption wavelength (Amax) was measured from the absorption spectrum of each sample solution. The results are shown in Tables 1 and 2, and the wavelength of Amax was evaluated according to the following standard.
• A: Amax was 1,150 nm or more. • B: Amax was less than 1,150 nm.

[2] = Evaluation of heat stability of polystyrene resin film (hot plate 180° C., 5 minutes); parameters: key to Heat stability of resin composition: absorbance reduction rate of Amax was less than 5%; B: absorbance reduction rate of Amax was 5% or more and less than 10%; C: absorbance reduction rate of Amax was 10% or more and less than 50%; D: absorbance reduction rate of Amax was 50% or more; X: solubility was insufficient, so that the film cannot be produced, which was not evaluable; conditions: for Heat stability of resin composition: polystyrene resin film on glass, hot plate 180° C. for 5 minutes, absorbance reduction rate at λmax
Protocol: 30 mg of each of Exemplary Compounds and the comparative compounds described in the tables was dissolved in 8.9 g of methyl ethyl ketone and 1.1 g of a polystyrene resin (manufactured by Sigma-Aldrich Co. LLC) to prepare a resin composition.
The obtained resin composition was spin-coated on a glass substrate to form a coating film, and the obtained coating film was dried at 60° C. for 2 minutes to produce a resin film. […]
• A: absorbance reduction rate of Amax was less than 5%. • B: absorbance reduction rate of Amax was 5% or more and less than 10%. • C: absorbance reduction rate of Amax was 10% or more and less than 50%. • D: absorbance reduction rate of Amax was 50% or more. • X: solubility was insufficient, so that the film cannot be produced, which was not evaluable.

[3] = Evaluation of solubility in methyl ethyl ketone (MEK); parameters: key to Solubility in solvent: A: 1 g or more of the compound was stably dissolved in 300 g of MEK; B: 1 g was not dissolved in 300 g of MEK; X: decomposition was observed by measuring the absorption spectrum after the dissolution; conditions: for Solubility in solvent: stirred at room temperature for 30 minutes
Protocol: For each of Exemplary Compounds shown in Tables 1 and 2, a predetermined amount of the compound was added to a solvent of methyl ethyl ketone (MEK), and solubility was evaluated according to the following standard by stirring the mixture at room temperature for 30 minutes.
• A: 1 g or more of the compound was stably dissolved in 300 g of MEK. • B: 1 g was not dissolved in 300 g of MEK. • X: decomposition was observed by measuring the absorption spectrum after the dissolution.

[4] = Evaluation of kneading: transmittance at 1,150 nm of melt-kneaded resin film; conditions: kneaded with resin under the thermal conditions
Protocol: A resin composition, which was a kneaded material of the specific compound or the comparative compound and a resin, was prepared, and the following kneading evaluation was performed.
The specific compounds and comparative compounds shown in Table 3 below were weighed in the contents shown in Table 3, and a sample obtained by shaking and mixing 12.0 g of the resin shown in Table 3 was prepared. A polycarbonate resin (indicated as Polycarbonate in Table 3), a polystyrene resin, and an acrylic resin were used as the resin. In Table 3, the polycarbonate resin is indicated as Polycarbonate, the polystyrene resin is indicated as Polystyrene, and the acrylic resin is indicated as Acrylic.
The obtained sample was put into a supply port of a biaxial kneader (Labo Plastomill, manufactured by Toyo Seiki Seisaku-sho, Ltd.) and subjected to melt-kneading to obtain a resin composition as a kneaded material. The obtained resin composition was pressed using a heat press machine to obtain a resin film having a thickness of 0.15 mm.
In a case where a polycarbonate resin (SD PORYCA (registered trademark) 301-10, manufactured by Sumika Polycarbonate Co., Ltd.) was used as the resin, the melt-kneading temperature was set to 260° C. and the hot press temperature was set to 230° C.
In a case where a polystyrene resin (manufactured by Sigma-Aldrich Co. LLC) was used as the resin, the melt-kneading temperature was set to 200° C. and the hot press temperature was set to 180° C.
In a case where an acrylic resin (G1000, manufactured by Kuraray Co., Ltd.) was used as the resin, the melt-kneading temperature was set to 180° C. and the hot press temperature was set to 160° C.
A transmittance of the obtained resin film at a wavelength of 1,150 nm was measured with a spectrophotometer, and the measured value was evaluated according to the following standard. In Table 3, it is described in “Evaluation of transmittance at wavelength of 1150 nm”. As the transmittance is lower, the near infrared blocking property is better. […]

heat stability (in words, kneading evaluation) [4]	heat stability of the resin composition (in words) ([2]; polystyrene resin film)	absorbance at the maximal absorption wavelength on heating ([2]; resin film, heating at 130° C. as printed)	Structure (SMILES)	Near infrared absorbing property [1]	Heat stability of resin composition [2]	Solubility in solvent [3]	λmax (maximal absorption wavelength) [1] [nm]	solubility in a solvent (in words) [3]	stability after dissolving in a solvent (measurement of the absorption spectrum) [3]
–	–	–	Cc1ccc(N(c2ccc(C)cc2)c2ccc([N+](=C3C=CC(=[N+](c4ccc(N(c5ccc(C)cc5)c5ccc(C)cc5)cc4)c4ccc(N(c5ccc(C)cc5)c5ccc(C)cc5)cc4)C=C3)c3ccc(N(c4ccc(C)cc4)c4ccc(C)cc4)cc3)cc2)cc1 [A-35]	A (Amax was 1,150 nm or more)	A (absorbance reduction rate of Amax was less than 5%)	A (1 g or more of the compound was stably dissolved in 300 g of MEK)	–	–	–
–	–	–	Cc1ccc(N(c2ccc(C)cc2)c2ccc([N+](=C3C=CC(=[N+](c4ccc(N(c5ccc(C)cc5)c5ccc(C)cc5)cc4)c4ccc(N(c5ccc(C)cc5)c5ccc(C)cc5)cc4)C=C3)c3ccc(N(c4ccc(C)cc4)c4ccc(C)cc4)cc3)cc2)cc1.c1ccc([B-](c2ccccc2)(c2ccccc2)c2ccccc2)cc1.c1ccc([B-](c2ccccc2)(c2ccccc2)c2ccccc2)cc1 [A-36]	A (Amax was 1,150 nm or more)	A (absorbance reduction rate of Amax was less than 5%)	A (1 g or more of the compound was stably dissolved in 300 g of MEK)	1215	–	–
–	–	–	C1=CC(=[N+](c2ccc(N(c3ccccc3)c3ccccc3)cc2)c2ccc(N(c3ccccc3)c3ccccc3)cc2)C=CC1=[N+](c1ccc(N(c2ccccc2)c2ccccc2)cc1)c1ccc(N(c2ccccc2)c2ccccc2)cc1 [Comparative compound 1, reference compound]	A (Amax was 1,150 nm or more)	X	B (1 g was not dissolved in 300 g of MEK)	1230	inferior	–
low	–	–	CCCCN(CCCC)c1ccc(N(c2ccc(N(CCCC)CCCC)cc2)c2ccc([N+](=C3C=CC(=[N+](c4ccc(N(c5ccc(N(CCCC)CCCC)cc5)c5ccc(N(CCCC)CCCC)cc5)cc4)c4ccc(N(c5ccc(N(CCCC)CCCC)cc5)c5ccc(N(CCCC)CCCC)cc5)cc4)C=C3)c3ccc(N(c4ccc(N(CCCC)CCCC)cc4)c4ccc(N(CCCC)CCCC)cc4)cc3)cc2)cc1.[F][Sb-]([F])([F])([F])([F])[F].[F][Sb-]([F])([F])([F])([F])[F] [Comparative compound 3, reference compound]	B (Amax was less than 1,150 nm)	D (absorbance reduction rate of Amax was 50% or more)	X	1051	–	decomposed
low	low	significantly reduced	CCCCN(CCCC)c1ccc([N+](=C2C=CC(=[N+](c3ccc(N(CCCC)CCCC)cc3)c3ccc(N(CCCC)CCCC)cc3)C=C2)c2ccc(N(CCCC)CCCC)cc2)cc1.[F][Sb-]([F])([F])([F])([F])[F].[F][Sb-]([F])([F])([F])([F])[F] [Comparative compound 4, reference compound]	B (Amax was less than 1,150 nm)	D (absorbance reduction rate of Amax was 50% or more)	A (1 g or more of the compound was stably dissolved in 300 g of MEK)	1100	favorable	–

Structure (SMILES)	heat stability (in words, kneading evaluation) [4]	heat stability of the resin composition (in words) ([2]; polystyrene resin film)	absorbance at the maximal absorption wavelength on heating ([2]; resin film, heating at 130° C. as printed)	Near infrared absorbing property [1]	Heat stability of resin composition [2]	Solubility in solvent [3]	λmax (maximal absorption wavelength) [1] [nm]	solubility in a solvent (in words) [3]	stability after dissolving in a solvent (measurement of the absorption spectrum) [3]
Cc1ccc(N(c2ccc(C)cc2)c2ccc([N+](=C3C=CC(=[N+](c4ccc(N(c5ccc(C)cc5)c5ccc(C)cc5)cc4)c4ccc(N(c5ccc(C)cc5)c5ccc(C)cc5)cc4)C=C3)c3ccc(N(c4ccc(C)cc4)c4ccc(C)cc4)cc3)cc2)cc1 [Comparative compound 2, reference compound]	low	–	–	A (Amax was 1,150 nm or more)	D (absorbance reduction rate of Amax was 50% or more)	X	1250	–	decomposed

Reference: patent publication US20260022246A1, “COLORING AGENT COMPOSITION, FILM, OPTICAL FILTER, AND NEAR INFRARED ABSORBING COMPOUND” (FUJIFILM Corporation, priority 2023, published 2026)
